# Measured values published in patent US4596710A, “Gallium chloride as a new anti-cancerous drug” (priority 1981, dated 1986).
# Columns and labels:
# adenocarcinoma = experiment: Long-term treatment of two bitches with evolutive third recurrence of mammary tumour; format: in vivo, female dogs
# [1] = Clinical, renal and biological tolerance in bitches; format: in vivo, female dogs
# Protocol: The anti-tumoral effect of gallium chloride was firstly studied in female dogs having spontaneous malignant tumours of the breast. Gallium chloride therapy was carried out in bitches having a mammary cancer (tubulo-pillaryadenocarcinoma or mixed-type tumour); treatment started either at the stage of the primary tumour (4 bitches) or upon a recurrence after a surgical excision (10 bitches).
# In the third case, the treatment could be continued for more than six months in a very old bitch of 14 years.
# Posology of gallium chloride, per os: 7.5 mg/kg from 15.4.1981 to 14.9.1981, then 10 mg/kg.
# globular Mg = experiment: Globular Mg rates in patients in the course of treatment; format: in vivo, human
# Text: The importance of checking the globular Mg rates was furthermore clearly illustrated by the following two observations (3rd and 4th patients).
# On Sept. […] This was the case. . . […] 29th, 1981. This posology was tolerated up to Nov. […] Up to Nov. […] It was from Sept.
# A person . . . […] On Oct. […] An exploratory laparotomy was made on Nov. […] 7th, 1982.
# FIGS. 1, 2 and 3 show the curves of the globular Mg (1) and plasmatic Mg (2) rates as a function of time in the course of treatment by gallium chloride (the starting point of the curves corresponding to the first administration) of the three patients. A person […] (1st patient, […] (3rd Patient) and a person […] (4th patient, respectively.
# To follow the globular Mg rates, the dosages must be frequent and repeated, about once a week. In fact, there are cyclic variations of the globular Mg rates with a curve of sinusoidal appearance, and the period of these cycles, like the importance of the globular Mg rates, are a function of the evolutive potential of the malignant tumour (P. COLLERY et col. "Role of Magnesium in the Development of Cancer", Trace Substances in Environmental Health, XII, 1978--A Symposium--University of Missouri--Columbia). The appearance of this curve is modified, as indicated above, by the anti-tumoral therapy by gallium chloride.
# [2] = Acute toxicity on the mouse; format: in vivo; details: per os
# [3] = tested on: bilateral cystadenocarcinoma of the ovary; experiment: 1st patient: gallium chloride treatment, tumour response; format: in vivo, human
# Protocol: Mrs. […] An epiploic and ganglionary invasion was discovered. Cobalt therapy was then carried out from Nov. 5th, 1979 to Feb. […] Treatment by gallium chloride started on Nov. […] An echotomograph on Dec. […] A third echotomograph was made on Jan. […] However, this was refused by the patient. On Mar.
structure (smiles),measurement,setting,value
[Cl][Ga]([Cl])[Cl] [gallium chloride],"size of the tumour, second bitch (BEL), 4.1.1981","adenocarcinoma; 2.5 mg/kg per os from 27.2.1981, 1.2 cm on 2.27.1981",1.8 cm in diameter
same,"size of the tumour, second bitch (BEL), 4.30.1981",adenocarcinoma; 2.5 mg/kg per os to 30.4.1981,2.3 cm in diameter
same,"tumour evolution after 10.14.1981, first bitch (OUD)","adenocarcinoma; 10 mg/kg per os, up to Dec. 28th, 1981",tumoral stabilisation
same,"pulmonary radiograph, second bitch (BEL)",adenocarcinoma; 5.1.1982,normal
same,"death, first bitch (OUD)","adenocarcinoma; Dec. 28th, 1981, good general state during preceding days",suddenly died (good general state during the preceding days) of a myocardial infarction with acute oedema of the lung and overall heart failure
same,"autopsy, first bitch (OUD)","adenocarcinoma; after death Dec. 28th, 1981",no hepatic nor pulmonary metastases a small nodule of 1 cm in the spleen
same,"tumour growth after 9.1.1981, second bitch (BEL)",adenocarcinoma; per os,the growth clearly slowed down with an obvious change in the consistency of the tumour
same,"tumour growth since Nov. 3rd, 1981, second bitch (BEL)",adenocarcinoma; up to surgical excision,"virtually not enlarged since Nov. 3rd, 1981"
same,"excised piece, second bitch (BEL)",adenocarcinoma; upon opening of excised tumour,considerable necrosis occupying virtually all the tumour
same,"clinical and biological tolerance, bitches overall",[1]; 5 mg/kg,excellent
same,"clinical and renal tolerance, first bitch (OUD)",[1]; 7.5 mg/kg then 10 mg/kg per os,perfect
same,"clinical and renal tolerance, second bitch (BEL)","[1]; 2.5, 5, then 7 mg/kg per os",perfect
same,dyspnoea leading to stop of treatment,"[1]; dog, in vivo, 5 mg/kg",treatment was stopped for one month due to a dyspnoea
same,"tolerance, bitches","[1]; oral, drinkable ampoules, first bitches 1 mg/kg, particularly digestive","tolerance proved to be good, particularly from the digestive point of view"
same,"globular magnesium rates, 4th patient, Oct. 15th, 1981",globular Mg; 300 mg/24 hours oral,3.00 mmol/L
same,"globular magnesium rates, 3rd patient, Oct. 6th, 1981","globular Mg; 800 mg/24 hours, after heparinotherapy stopped",2.96 mmol/L
same,"globular magnesium rates, curves of FIGS. 1-3","globular Mg; 1st, 3rd and 4th patients, when treatment is efficacious",decrease
same,"globular Mg rates, first 4 months, 4th patient",globular Mg; 500 then 300 mg/24 hours oral,normal
same,"correlation between clinical state, carcinoembryonic antigen and globular magnesium rates, 4th patient","globular Mg; human, in vivo",could be emphasized
same,LD50,[2],1790 mg/kg
same,"clinical state, end of January 1981",[3]; 300 mg per day per os,very satisfactory
same,"superficial palpable mass, end of January 1981",[3]; 300 mg per day per os,had disappeared
same,"volume of the mass of the Douglas pouch, echotomograph Jan. 7th, 1981",[3]; 300 mg per day per os,clearly decreased
same,"mass of the Douglas pouch, echotomograph Dec. 9th, 1980","[3]; 300 mg per day per os from Nov. 1st, 1980, 3.5 cm on Oct. 27th",maintained the same diameter
same,"superficial mass / tissue of infiltration, echotomograph Dec. 9th, 1980","[3]; 300 mg per day per os, 4.4 by 3 cm before treatment",the tissue of infiltration had become a sclerous tissue
same,"death, 1st patient",[3]; after interruption of gallium chloride,"death occurred on May 6th, 1981"
